{
  "source": "patent US20110230407A1",
  "about": "“HEPATOCYTE GROWTH FACTOR PATHWAY ACTIVATORS IN DEMYELINATING DISEASES AND CENTRAL NERVOUS SYSTEM TRAUMA” (priority 2005, published 2011)",
  "assay_type_in_all_cases": "cell-based",
  "key": {"Schwann cells [1]": {"test_system": "Schwann cells", "experiment": "H2O2-induced apoptosis of Schwann cells (Apo-ONE Assay kit)", "conditions": "0.5 mM H2O2 for 2 hours; HGF 50 ng/ml, mimetic 10 micromolar; FIG. 1", "protocol": "HGF and small molecule HGF/SF mimetic protect Schwann cells against H2O2-induced apoptosis. Schwann cells were seeded in 96 well plates at a density of 5000 cells/well, overnight in serum-free media. Cells were treated with 0.5 mM H2O2 for 2 hours in the presence of vehicle (Veh), HGF (50 ng/ml) or HGF/SF mimetic (10 micromolar). Cells were assayed for apoptosis using the Apo-ONE Assay kit (Promega)."}, "Schwann cells [2]": {"test_system": "Schwann cells", "experiment": "Myelin production by fluoromyelin staining, Schwann cells", "conditions": "4 hours", "protocol": "HGF/SF and small molecule HGF/SF mimetic increase myelin production in Schwann cells. It is well-known that the primary function of oligodendrocytes and Schwann cells is myelin production. […] Cells were seeded in 3 well chamber slides at a density of 50,000 cells/well in serum free media for 24 hours. Then HGF/SF (50 ng/ml) or a small molecule HGF/SF mimetic (5 μM) were added to the same medium and cells incubated for an additional 4 hours. Cells were washed, and fluoromyelin (Molecular Probes) was added to each well (30 min exposure at room temperature), and cells observed under a confocal microscope (Olympus). […] To obtain semi-quantitative measurements of this increase in the fluoromyelin signal, a second experiment was performed. Schwann cells were seeded in 6 well plates at a density of 4×10^5 cells/well and treated with HGF (50 ng/ml) or mimetic (5 uM) for 4 hours. Fluoromyelin staining was performed as described above and relative fluorescence was measured using a fluorescence plate reader."}, "oligodendrocytes": {"test_system": "oligodendrocytes", "experiment": "Myelin production by fluoromyelin staining, oligodendrocytes", "conditions": "HGF/SF 50 ng/ml, mimetic 5 μM, 4 hours"}, "rat RSC96 Schwann cells": {"test_system": "rat RSC96 Schwann cells", "experiment": "Schwann cell proliferation, [3H]-thymidine incorporation", "conditions": "treated 16-24 hours, serum-free; FIGS. 3A and 3B", "text": "(§1) Small molecule HGF/SF agonist mimics HGF/SF's pro-proliferative effects. Oligodendrocytes and Schwann cells are both cells that support neuronal function by ensheathing neuronal axons with myelin. An individual supporting cell comprises a single segment of an axon's myelin sheath and is active in facilitating axonal growth. An important aspect of HGF/SF activity is this growth factor's ability to induce oligodendrocyte and Schwann cell proliferation. In order to evaluate small molecule HGF/SF mimetics for potential HGF/SF-like bioactivity, rat RSC96 Schwann cells (ATCC, Manassas, Va.) or mouse primary oligodendrocytes (Celprogen, San Pedro, Calif.) were seeded in 96-well plates at 5000 cells/well in serum-free medium for 16 hours. Cells were treated with test compound or HGF/SF (positive control) for 16-24 hours. [^3H]-thymidine was added to the medium with Schwann cells, WST1 cell proliferation reagent (Roche, Indianapolis, Ind.) was added to oligodendrocytes, and incubation was continued for another 4-5 hours. Schwann cells were washed with PBS and harvested. [^3H]-thymidine incorporation was determined and used as a measure of proliferation (increased DNA synthesis). Cells with WST1 reagent were read using a plate reader at an OD of 490 nm."}, "[3]": {"test_system": "mouse primary oligodendrocytes", "experiment": "Oligodendrocyte proliferation, WST1 reagent", "conditions": "treated 16-24 hours, serum-free; FIGS. 3C and 3D", "text": "as §1"}, "[4]": {"test_system": "fibroblasts lacking the Met receptor", "experiment": "Mitogenesis in fibroblasts lacking the Met receptor", "protocol": "To determine whether mimetic-mediated Met phosphorylation induces similar intracellular signaling cascades as HGF/SF, and to assess whether these signaling events convey biologic activity, experiments were carried out using an Akt inhibitor and the phosphoinositide3-kinase inhibitor Wortmannin."}, "smooth muscle cells": {"test_system": "smooth muscle cells", "experiment": "Mitogenesis in smooth muscle cells lacking the Met receptor"}, "Human neurons": {"test_system": "Human neurons", "experiment": "Neuronal axon growth and cell density in human neurons", "conditions": "48 hours, FIG. 5", "protocol": "In this experiment, the ability of HGF/SF and mimetic to activate axonal growth was assessed. Human neurons (ATCC) were seeded in 6-well plates (1000 cell/well) in media containing 1% FBS. Cells were treated with HGF/SF (50 ng/ml) or mimetic (5 micromolar) for 48 hours. […] Cell shape, size, and density are clearly different in the presence of HGF/SF and mimetic compared with control. […] In one experiment, neurons were incubated with conditioned media from Schwann cells (FIG. 5, right field). […] Thus, secreted growth factors present in Schwann cell media are ineffective (or are at least effects are below the level of detection) as cell mitogens."}, "NGF, BDNF, and NT-4": {"test_system": "NGF, BDNF, and NT-4", "experiment": "Expression of neurotrophic growth factors in Schwann cells, Western blot", "conditions": "Schwann cell protein extracts; FIG. 6", "text": "HGF/SF- and HGF/SF mimetic-activated Schwann cells show increased expression of neurotrophic growth factors."}, "Schwann cells [5]": {"test_system": "Schwann cells", "experiment": "Schwann cell migration, Migration Chamber", "conditions": "22 hours, quantified with Calcein; FIG. 7", "protocol": "HGF/SF mimetic recapitulates HGF/SF activity in Schwann cells. To compare the direct effects of HGF/SF mimetic and HGF/SF on cell migration, an in vitro migration assay was employed using a Migration Chamber (BD Biosciences). 50,000 cells were seeded in the inner chamber for 22 hours in the presence of 0.4% or 10% FBS, HGF/SF, or mimetic. Cell number was quantified with […] Calcein using a fluorescence plate reader."}},
  "data": [
    {"substance": "HGF/SF: Scatter factor / hepatocyte growth factor, pleiotropic growth factor, heparin binding heterodimeric protein signalling through Met", "values": [
      {"measurement": "cell viability after H2O2", "setting": "Schwann cells [1]", "value": "substantial improvement in cell viability"},
      {"measurement": "increase in the fluoromyelin signal, relative fluorescence by plate reader", "setting": "Schwann cells [2]; HGF 50 ng/ml, mimetic 5 uM, FIG. 2B", "value": 3, "unit": "fold"},
      {"measurement": "fluoromyelin signal, confocal microscope", "setting": "Schwann cells [2]; HGF/SF 50 ng/ml, mimetic 5 μM, FIG. 2A", "value": "intense increase"},
      {"measurement": "myelin production in oligodendrocytes", "setting": "oligodendrocytes", "value": "induce myelin production"},
      {"measurement": "Schwann cell proliferation ([3H]-thymidine incorporation)", "setting": "rat RSC96 Schwann cells", "value": "activate"},
      {"measurement": "oligodendrocyte proliferation (WST1, OD 490 nm)", "setting": "[3]", "value": "activate"},
      {"measurement": "mitogenesis in fibroblasts lacking the Met receptor", "setting": "[4]", "value": "neither the mimetic nor HGF/SF activated mitogenesis"},
      {"measurement": "mitogenesis in smooth muscle cells, which also lack the Met receptor", "setting": "smooth muscle cells", "value": "A similar result was obtained"},
      {"measurement": "neuronal cell proliferation / cell density", "setting": "Human neurons", "value": "activate neuronal cell proliferation"},
      {"measurement": "neuronal axon growth", "setting": "Human neurons; HGF/SF 50 ng/ml, mimetic 5 micromolar, 1% FBS", "value": "activate neuronal axon growth"},
      {"measurement": "expression of NGF, BDNF, and NT-4 cytokines", "setting": "NGF, BDNF, and NT-4", "value": "over-express"},
      {"measurement": "Schwann cell migration", "setting": "Schwann cells [5]", "value": "similarly increase Schwann cell migration"}
    ]}
  ]
}
